Article PMC6361841, “Repurposing of Drugs as Novel Influenza Inhibitors From Clinical Gene Expression Infection Signatures” (Frontiers in Immunology, 2019)
Where two headings read alike, the source gives them in different places.

How the values were obtained:
[1] = system: A/Lyon/969/09 (H1N1)pdm09 virus; test: microbe, parasite or virus in culture; format: cell-based, influenza A(H1N1)pdm09 virus; conditions: Influenza A virus, H1N1, 48 h; pre-treatment/treatment in vitro; A549; […]; read-out: EC50
[2] = system: A/Texas/126/2016 (H3N2); test: Antiviral efficacy in A549 cells, H3N2 strain; format: cell-based, influenza virus
[3] = system: B/Massachusetts/2/2106; test: Antiviral efficacy in A549 cells, B strain; format: cell-based, influenza virus
[4] = system: A(H1N1)pdm09 virus; format: cell-based, influenza virus
[5] = system: influenza A/Quebec/144147/09 (H1N1)pdm09 virus; format: in vivo, C57BL/6N mice
[6] = system: influenza A/Quebec/144147/09 (H1N1)pdm09 virus; format: in vivo, C57BL/6N mice; remark: listed apart in the source
[7] = system: influenza A/Lyon/969/09 (H1N1)pdm09 virus; format: cell-based
[8] = system: MucilAir® human airway epithelium; format: cell-based
[9] = system: MucilAir® human airway epithelia (HAE); test: LDH cytotoxicity in HAE; conditions: oseltamivir 1 μM, diltiazem 90 μM, combinations
[10] = […], oseltamivir 10 mg/kg/day, diltiazem 90 mg/kg/day
[11] = 24 h p.i., oseltamivir 0.1 µM, diltiazem 9 µM or both
[12] = 48 h p.i., oseltamivir 0.1 µM, diltiazem 9 µM or both
[13] = 72 h p.i., oseltamivir 0.1 µM, diltiazem 9 µM or both
[14] = 96 h p.i., oseltamivir 0.1 µM, diltiazem 9 µM or both
[15] = oseltamivir 1 μM, diltiazem 90 μM

COc1ccc([C@@H]2Sc3ccccc3N(CCN(C)C)C(=O)[C@@H]2OC(C)=O)cc1 [Diltiazem]
EC50 [1]: 0.84 nM
Relative Viral production ([2]; dose CMAP): 7.9 % of mock-treated
Viral titer ([2]; dose CMAP): 4.92 log TCID50/ml
Relative Viral production ([2]; dose CMAP/10): 12.75 % of mock-treated
Viral titer ([2]; dose CMAP/10): 5.13 log TCID50/ml
Relative Viral production ([3]; dose CMAP): 4.7 % of mock-treated
Viral titer ([3]; dose CMAP): 3.97 log TCID50/ml
Relative Viral production ([3]; dose CMAP/10): 10.0 % of mock-treated
Viral titer ([3]; dose CMAP/10): 4.3 log TCID50/ml
Effect of virus pre-incubation on final viral titers vs PBS-incubated controls ([4]; pre-incubation before infection): did not affect final viral titers
Viral titer, Dilution #2 ([4]; virus 10^5 TCID50/mL pre-incubated 1 h, diltiazem 9 µM, etilefrine 18 µM, oseltamivir 1 µM): 4.63 log TCID50/ml
Viral titer, Dilution #1 ([4]; virus 10^6 TCID50/mL pre-incubated 1 h, diltiazem 9 µM, etilefrine 18 µM, oseltamivir 1 µM): 5.63 log TCID50/ml
Mean relative Viral production ([4]; virus pre-incubated 1 h, relative to PBS control): 156.9 % of mock-treated
Clinical benefit in terms of survival vs saline (placebo) group ([5]; […], mg/kg/day: oseltamivir 10, monensin 10, diltiazem 90, etilefrine 3, lanatoside C 100, prednisolone 5, flucytosine 240, felbinac 5, timolol 50): significantly improved survival
Weight loss vs saline (placebo) group ([5]; […], oseltamivir 10, diltiazem 90, etilefrine 3 mg/kg/day): significantly improved
Reduction in lung viral titers (LVTs) on day 5 p.i. ([5]; mouse, in vivo): at least 1 log
Hazard ratio (HR) for the saline group compared to treatment group (CI95) ([6]; […], diltiazem 45 mg/kg): 7.62 (1.49–38.96)
Mice rescued from death ([6]; […], half-dose diltiazem 45 mg/kg): 30%
Survival ([6]; […], mg/kg/day: oseltamivir 10, monensin 10, diltiazem 90, etilefrine 3): completely prevented mortality
Hazard ratio (HR) for the saline group compared to treatment group (CI95) [6, 10]: 2.85 (0.56–14.47)
Mice rescued from death [6, 10]: 20%
Weight loss ([6]; […], oseltamivir 10, monensin 10, diltiazem 90 mg/kg/day): reduced weight loss
Mean weight loss ([6]; mouse, in vivo): significant improvement
Apical viral titer log TCID50/ml (CI95) [7, 11]: 6.47 (5.03 – 7.90) log TCID50/ml
Apical viral titer log TCID50/ml (CI95) [7, 12]: 8.91 (8.67 – 9.16) log TCID50/ml
Apical viral titer log TCID50/ml (CI95) [7, 13]: 8.21 (7.28 – 9.14) log TCID50/ml
Apical viral titer log TCID50/ml (CI95) [7, 14]: 7.32 (6.43 – 8.22) log TCID50/ml
Apical viral titer log TCID50/ml (CI95) ([7]; 96 h p.i., oseltamivir 1 µM, diltiazem 90 µM or both): 7.37 (5.97 – 8.76) log TCID50/ml
Effect on viral replication vs untreated control ([7]; oseltamivir 0.1 μM, diltiazem 9 μM (CMAP) or both, from 5 h p.i., once daily 5 days): no significant advantage over the untreated control
Reduction in apical viral titers at 48 h p.i. compared to the untreated control [7, 15]: > 3 log
Virus on the basolateral medium [7, 15]: No virus was detected
Delay of the peak of viral production ([7]; oseltamivir 1 μM, diltiazem 90 μM (10-fold CMAP)): 24 h
Reduction in apical peak viral titers compared to the untreated control ([7]; oseltamivir 1 μM, diltiazem 90 μM or both, 48 h p.i. untreated vs. 72 h p.i. treated): > 2 log
Δ TEER (CI95) [8, 11]: 35.10 (10.96 – 59.23) Ohm/cm^2
Δ TEER (CI95) ([8]; 24 h p.i., oseltamivir 1 µM, diltiazem 90 µM or both): 86.13 (3.72 – 168.5) Ohm/cm^2
Δ TEER (CI95) [8, 12]: -48.31 (-180.1 – 83.47) Ohm/cm^2
Δ TEER (CI95) ([8]; 48 h p.i., oseltamivir 1 µM, diltiazem 90 µM or both): 120.1 (-85.77 – 326.00) Ohm/cm^2
Δ TEER (CI95) [8, 13]: -218.0 (255.6 – -180.4) Ohm/cm^2
Δ TEER (CI95) ([8]; 72 h p.i., oseltamivir 1 µM, diltiazem 90 µM or both): -115.5 (-308.5 – 77.52) Ohm/cm^2
Δ TEER (CI95) [8, 14]: -220.5 (-267.4 – -173.5) Ohm/cm^2
TEER during the time-course of infection ([8]; oseltamivir 1 μM, diltiazem 90 μM or both): partially buffered the TEER decrease
Treatment-induced toxicity (LDH release) [9]: absence of treatment-induced toxicity
